Reference: ChEMBL document CHEMBL1146853, “Proton dissociation is important to understanding structure-activity relationships of gallic acid antioxidants” (Bioorg Med Chem Lett, 2006)
pIC50: −log10 of the molar value.

Tests used:
[1] = tested on: Radical scavenging activity; experiment: DPPH radical scavenging activity in ethanol solution; format: functional; conditions: for pIC50: read-out: IC50
[2] = tested on: Radical scavenging activity; experiment: DPPH radical scavenging activity in liposome; format: functional; conditions: for pIC50: read-out: IC50

| Compound | pIC50 [1] | pIC50 [2] | IC50 [1] | IC50 [2] |
| --- | --- | --- | --- | --- |
| COc1cc(C(=O)O)cc(O)c1OC |  |  | Not Active | Not Active |
| COc1cc(C(=O)O)cc(OC)c1OC [3,4,5-TRIMETHOXYBENZOIC ACID] |  |  | Not Active | Not Active |
| O=C(O)c1cc(O)c(O)c(O)c1 [GALLIC ACID] | 5.22 | 5.14 |  |  |

Further lines, with some results ahead:

| pIC50 [1] | pIC50 [2] | Compound | IC50 [1] | IC50 [2] |
| --- | --- | --- | --- | --- |
| 5.14 | 5.08 | COC(=O)c1cc(O)c(O)c(O)c1 [GALLIC ACID METHYL ESTER] |  |  |
| 5.14 | 5.13 | COc1cc(C(=O)O)cc(OC)c1O [SYRINGIC ACID] |  |  |
